In PMC2720136 (Bioorganic & medicinal chemistry, 2009):
Blank lines part the entries; values can stand above or below the compound they belong to.

How the values were obtained:
[1] = molecular target: T1, pig kidney FBPase (Sus scrofa, UniProt P00636); assay: Coupled-enzyme FBPase activity assay; type: biochemical
T1 sequence (P00636 1-338): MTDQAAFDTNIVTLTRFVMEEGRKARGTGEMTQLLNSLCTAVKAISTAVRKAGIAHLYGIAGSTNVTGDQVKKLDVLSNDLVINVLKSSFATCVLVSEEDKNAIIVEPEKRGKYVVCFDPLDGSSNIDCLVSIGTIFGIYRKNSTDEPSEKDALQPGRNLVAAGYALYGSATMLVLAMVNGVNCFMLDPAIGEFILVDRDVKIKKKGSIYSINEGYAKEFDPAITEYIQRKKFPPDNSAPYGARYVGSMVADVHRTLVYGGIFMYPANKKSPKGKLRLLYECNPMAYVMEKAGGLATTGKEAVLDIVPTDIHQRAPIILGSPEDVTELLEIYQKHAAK

[2] = tested on: human liver FBPase; assay: Inhibition of human liver FBPase by MB05032; type: biochemical; conditions: MB05032 EC50 (human liver FBPase) vs 4c IC50 (pig kidney FBPase)

fold improved inhibition of 5b over 5a ([1]; ratio of IC50, 5a vs 5b): ~18 fold
SMILES: Oc1ccc(-c2csc(Nc3ccccc3O)n2)cc1 [Compound 5b, 2-(4-(4-Hydroxyphenyl)thiazol-2-ylamino)phenol]

inhibition with nitro at R5 (in words) ([1]; pig kidney FBPase): eliminates inhibition
SMILES: O=[N+]([O-])c1ccc(-c2csc(Nc3ccccc3)n2)cc1 [Compound 8e, 4-(4-Nitrophenyl)-N-phenylthiazol-2-amine]

inhibitory activity against the enzyme at 300 μM ([1]; pig kidney FBPase, 300 μM inhibitor): no significant inhibitory activity
SMILES: O=[N+]([O-])c1cccc(Nc2nc(-c3ccccc3)cs2)c1 [Compound 7a, N-(3-Nitrophenyl)-4-phenylthiazol-2-amine]

SMILES: CC(C)Cc1sc(N)nc1-c1ccc(P(=O)(O)O)o1 [MB05032]
fold better than 4c [2]: approximately 370 fold

fold improved inhibitory activity of 3b over 3a ([1]; ratio of IC50, 3a vs 3b): 3 fold
SMILES: Oc1ccc(Nc2nc(-c3ccc(O)cc3)cs2)cc1 [Compound 3b, 4-(4-(4-Hydroxyphenyl)thiazol-2-ylamino)phenol]

inhibition with nitro at R5 (in words) ([1]; pig kidney FBPase): eliminated
SMILES: O=[N+]([O-])c1ccc(-c2csc(Nc3ccc(O)cc3)n2)cc1 [Compound 3d, 4-(4-(4-Nitrophenyl)thiazol-2-ylamino)phenol]
